Experimental data published in publication PMC2865582 (Journal of medicinal chemistry, 2010).

Target: T1, human GVIA iPLA2 (Homo sapiens, UniProt O60733)
T1 sequence (O60733 1-806): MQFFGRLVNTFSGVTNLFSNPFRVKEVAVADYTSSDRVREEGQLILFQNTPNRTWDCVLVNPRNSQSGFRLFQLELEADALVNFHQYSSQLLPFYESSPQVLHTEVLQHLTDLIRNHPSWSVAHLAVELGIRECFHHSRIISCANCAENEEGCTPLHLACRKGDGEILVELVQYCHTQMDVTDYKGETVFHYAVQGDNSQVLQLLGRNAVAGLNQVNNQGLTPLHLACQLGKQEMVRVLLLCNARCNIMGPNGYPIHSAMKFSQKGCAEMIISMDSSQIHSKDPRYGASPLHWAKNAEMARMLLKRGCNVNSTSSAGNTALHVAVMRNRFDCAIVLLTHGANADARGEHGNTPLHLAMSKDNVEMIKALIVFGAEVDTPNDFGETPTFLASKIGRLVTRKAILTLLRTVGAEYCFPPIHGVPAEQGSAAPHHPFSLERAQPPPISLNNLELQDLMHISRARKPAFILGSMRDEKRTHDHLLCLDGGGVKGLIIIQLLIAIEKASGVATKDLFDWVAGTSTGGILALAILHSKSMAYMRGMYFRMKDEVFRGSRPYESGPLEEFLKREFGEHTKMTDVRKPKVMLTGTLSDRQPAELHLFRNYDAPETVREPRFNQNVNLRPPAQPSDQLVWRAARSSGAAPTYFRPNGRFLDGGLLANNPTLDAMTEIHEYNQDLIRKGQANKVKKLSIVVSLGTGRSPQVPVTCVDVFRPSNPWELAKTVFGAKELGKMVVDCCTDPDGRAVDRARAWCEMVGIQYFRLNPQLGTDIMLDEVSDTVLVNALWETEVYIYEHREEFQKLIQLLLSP
Test: Mixed micelle-based
Assay type: biochemical

[1] = XI(50) compared with inhibitor 2

**Q.** `O=C(CCCOc1ccccc1)C(F)(F)C(F)(F)F` [12a, 1,1,1,2,2-Pentafluoro-6-phenoxyhexan-3-one] was tested. Which “times less potent on GVIA iPLA2 than inhibitor 2” value [1] did it give?
**A.** 2.5 times

**Q.** With `O=C(CCCCc1ccc2ccccc2c1)C(F)(F)F` [12g, 1,1,1-Trifluoro-6-(naphthalen-2-yl)hexan-2-one] as the compound, how does the “times higher inhibition of GVIA iPLA2 than inhibitor 2” value [1] read?
**A.** 7 times

**Q.** How did the inhibition at 0.091 mole fraction (read-out: GVIA iPLA2 % Inhibition) turn out when `O=C(CCCCc1ccccc1)C(F)(F)C(F)(F)F` [compound 2, 1,1,1,2,2-pentafluoro-7-phenylheptan-3-one] was run?
**A.** 99.4 ± 0.1%

**Q.** With `O=C(/C=C/C=C/c1ccccc1)C(F)(F)C(F)(F)F` [compound 10, (4E,6E)-1,1,1,2,2-Pentafluoro-7-phenylhepta-4,6-dien-3-one] as the compound, how does the “times less potent on GVIA iPLA2 than inhibitor 2” value [1] read?
**A.** 22 times
